Results taken from US7704995B2 (Exelixis, Inc., priority 2003, dated 2010).
Where two headings read alike, the source gives them in different places.

Molecular target: T1, Chk1 (Homo sapiens, UniProt O14757)
T1 construct: purchased Upstate Biotechnology
T1 sequence (O14757 1-476): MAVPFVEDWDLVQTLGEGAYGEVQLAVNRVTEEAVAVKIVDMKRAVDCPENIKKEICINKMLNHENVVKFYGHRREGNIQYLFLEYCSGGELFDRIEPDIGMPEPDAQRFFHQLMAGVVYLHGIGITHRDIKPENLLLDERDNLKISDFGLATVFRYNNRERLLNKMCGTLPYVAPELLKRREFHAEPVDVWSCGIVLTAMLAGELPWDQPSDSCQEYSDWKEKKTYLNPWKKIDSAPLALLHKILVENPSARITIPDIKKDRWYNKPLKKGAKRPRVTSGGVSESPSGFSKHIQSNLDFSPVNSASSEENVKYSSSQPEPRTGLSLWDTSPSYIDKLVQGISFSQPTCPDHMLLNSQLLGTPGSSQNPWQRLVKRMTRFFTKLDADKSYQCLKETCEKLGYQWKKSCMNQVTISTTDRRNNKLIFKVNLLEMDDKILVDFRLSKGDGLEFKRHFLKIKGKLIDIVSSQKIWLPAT
Assay: Chk1 kinase assay: incorporation of γ-33P ATP into immobilized myelin basic protein
Type: biochemical
Conditions: read-out: Chk1 IC50
Outline: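 MBP coated on plates (20 μg/ml) was phosphorylated by Chk1 (10 nM) or Chk2 (20 nM) with γ-33P ATP plus 10 μM (Chk1) or 30 μM (Chk2) unlabeled ATP, 1 h at room temperature, 1% DMSO. Bound radioactivity was counted by scintillation after washing; IC50 or Ki derived from fitted rate data.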

[1] = Table 11, Chk1 only, class symbols A-D

Row | IC50 [µM] | IC50 (Table 11, Chk1 only) [µM] | SMILES | other results
1 |  | < 0.05 | Nc1ncc(-c2cccc(C(=O)N[C@H]3CCc4ccccc43)c2)nc1C(=O)NC[C@H]1CCNC1 [Example 785, 3-amino-6-(3-{[(1S)-2,3-dihydro-1H-inden-1-ylamino]carbonyl}phenyl)-N-[(3S)-pyrrolidin-3-ylmethyl]pyrazine-2-carboxamide] | 
2 | 0.05 to 1 |  | CNC(=O)c1nc(-c2cccc(C(=O)NCc3cccc(F)c3)c2)cnc1N [Example 110, 3-amino-6-[3-({[(3-fluorophenyl)methyl]amino}carbonyl)phenyl]-N-methylpyrazine-2-carboxamide] | 
3 |  | < 0.05 | Nc1ncc(-c2cccc(C(=O)NCc3ccc(Cl)cc3)c2)nc1C(=O)N[C@H]1CCNC1 [Example 760, 3-amino-6-[3-({[(4-chlorophenyl)methyl]amino}carbonyl)phenyl]-N-[(3S)-pyrrolidin-3-yl]pyrazine-2-carboxamide] | 
4 | 1 to 10 |  | CNC(=O)c1nc(-c2cccc(C(=O)N[C@@H]3CCC[C@H]3OCc3ccccc3)c2)cnc1N [Example 163, 3-amino-N-methyl-6-{3-[({(1R,2R)-2-[(phenylmethyl)oxy]cyclopentyl}amino)carbonyl]phenyl}pyrazine-2-carboxamide] | 
5 |  | ≥ 10 | CC(C)(C)OC(=O)N1CCCC(NC(=O)c2nc(-c3cccc(C(=O)N[C@H]4CCc5ccccc54)c3)cnc2N)C1 (stereo partly drawn) [Example 728, 1,1-dimethylethyl 3-({[3-amino-6-(3-{[(1S)-2,3-dihydro-1H-inden-1-ylamino]carbonyl}phenyl)pyrazin-2-yl]carbonyl}amino)piperidine-1-carboxylate] | 

Second part, the compound before the results:

Row | SMILES | IC50 [µM] | IC50 (Table 11, Chk1 only) [µM] | other results
6 | CNC(=O)c1nc(-c2cccc(CNC(=O)c3ccc(C(C)C)cc3)c2)cnc1N [Example 374, 3-amino-N-methyl-6-{3-[({[4-(1-methylethyl)phenyl]carbonyl}amino)methyl]phenyl}pyrazine-2-carboxamide] | 0.05 to 1 |  | 
7 | Nc1ncc(-c2cccc(CN[C@H]3CCc4ccccc43)c2)nc1-c1cnco1 [Example 528, 5-(3-{[(1S)-2,3-dihydro-1H-inden-1-ylamino]methyl}phenyl)-3-(1,3-oxazol-5-yl)pyrazin-2-amine] |  | 1 to 10 | 
8 | CC(C)(C)OC(=O)N1CC[C@H](NC(=O)c2nc(-c3cccc(C(=O)NCc4cccnc4)c3)cnc2N)C1 [Example 758, 1,1-dimethylethyl (3S)-3-({[3-amino-6-(3-{[(pyridin-3-ylmethyl)amino]carbonyl}phenyl)pyrazin-2-yl]carbonyl}amino)pyrrolidine-1-carboxylate] |  | 1 to 10 | 
9 | Nc1ncc(-c2cccc(NC(=O)Cc3ccc(F)cc3)c2)nc1C(=O)N[C@H]1CCCNC1 [Example 983, 3-amino-6-(3-{[(4-fluorophenyl)acetyl]amino}phenyl)-N-[(3S)-piperidin-3-yl]pyrazine-2-carboxamide] |  |  | IC50 [1]: < 0.05 µM
10 | Nc1ncc(-c2cccc(CN[C@@H]3c4ccccc4C[C@@H]3O)c2)nc1C(=O)N[C@H]1CCNC1 [Example 806, 3-amino-6-[3-({[(1R,2S)-2-hydroxy-2,3-dihydro-1H-inden-1-yl]amino}methyl)phenyl]-N-[(3S)-pyrrolidin-3-yl]pyrazine-2-carboxamide] |  |  | IC50 [1]: < 0.05 µM
11 | Nc1ncc(-c2cccc(CNC(=O)Nc3ccc4c(c3)OCO4)c2)nc1C(=O)N[C@H]1CCCNC1 [Example 956, 3-amino-6-[3-({[(1,3-benzodioxol-5-ylamino)carbonyl]amino}methyl)phenyl]-N-[(3S)-piperidin-3-yl]pyrazine-2-carboxamide] |  |  | IC50 [1]: < 0.05 µM
12 | Nc1ncc(-c2cccc(C(=O)NCc3cccc(-c4ccccc4)c3)c2)nc1C(=O)N[C@H]1CCCNC1 [Example 1034, 3-amino-6-(3-{[(biphenyl-3-ylmethyl)amino]carbonyl}phenyl)-N-[(3S)-piperidin-3-yl]pyrazine-2-carboxamide] |  |  | IC50 [1]: < 0.05 µM
13 | CNC(=O)c1nc(-c2cccc(C(=O)NCc3ccc(F)cc3Cl)c2)cnc1N [Example 370, 3-amino-6-[3-({[(2-chloro-4-fluorophenyl)methyl]amino}carbonyl)phenyl]-N-methylpyrazine-2-carboxamide] | 0.05 to 1 |  | 
14 | Nc1ncc(-c2cccc(CO)c2)nc1-c1nc(-c2ccccn2)n[nH]1 [Example 682, {3-[5-amino-6-(3-pyridin-2-yl-1H-1,2,4-triazol-5-yl)pyrazin-2-yl]phenyl}methanol] |  | 1 to 10 | 
15 | Nc1ncc(-c2cccc(C(=O)NCc3ccc(Br)cc3F)c2)nc1C(=O)N[C@H]1CCCNC1 [Example 871, 3-amino-6-[3-({[(4-bromo-2-fluorophenyl)methyl]amino}carbonyl)phenyl]-N-[(3S)-piperidin-3-yl]pyrazine-2-carboxamide] |  |  | IC50 [1]: < 0.05 µM
16 | CNC(=O)c1nc(-c2cccc(CNC(CN(C)C)c3ccccc3)c2)cnc1N (centres unmarked) [Example 511, 3-amino-6-[3-({[2-(dimethylamino)-1-phenylethyl]amino}methyl)phenyl]-N-methylpyrazine-2-carboxamide] |  | 0.05 to 1 | 
17 | CNC(=O)c1nc(-c2ccncc2)cnc1N [Example 269, 3-amino-N-methyl-6-pyridin-4-ylpyrazine-2-carboxamide] | 1 to 10 |  | 
18 | CNC(=O)c1nc(-c2cccc(CNCc3c(OC)cccc3OC)c2)cnc1N [Example 398, 3-amino-6-{3-[({[2,6-bis(methyloxy)phenyl]methyl}amino)methyl]phenyl}-N-methylpyrazine-2-carboxamide] | 0.05 to 1 |  | 
19 | CNC(=O)c1nc(-c2cccc(C(=O)NCc3c(OC)cccc3OC)c2)cnc1N [Example 249, 3-amino-6-{3-[({[2,6-bis(methyloxy)phenyl]methyl}amino)carbonyl]phenyl}-N-methylpyrazine-2-carboxamide] | 1 to 10 |  | 
20 | CNC(=O)c1nc(-c2ccsc2)cnc1N [Example 264, 3-amino-N-methyl-6-(3-thienyl)pyrazine-2-carboxamide] | 0.05 to 1 |  | 
21 | CNC(=O)c1nc(-c2cccc(C(=O)NCc3ccc(F)cc3C(F)(F)F)c2)cnc1N [Example 405, 3-amino-6-{3-[({[4-fluoro-2-(trifluoromethyl)phenyl]methyl}amino)carbonyl]phenyl}-N-methylpyrazine-2-carboxamide] | 0.05 to 1 |  | 
22 | CNC(=O)c1nc(-c2cccc(CN[C@@H]3CCc4cc(-c5ccccc5)ccc4C3)c2)cnc1N [Example 497, 3-amino-N-methyl-6-[3-({[(2R)-6-phenyl-1,2,3,4-tetrahydronaphthalen-2-yl]amino}methyl)phenyl]pyrazine-2-carboxamide] |  | 0.05 to 1 | 
23 | CNc1nccc(-c2nc(-c3cccc(C(=O)NCc4ccccc4)c3)cnc2N)n1 [Example 657, 3-{5-amino-6-[2-(methylamino)pyrimidin-4-yl]pyrazin-2-yl}-N-(phenylmethyl)benzamide] |  | ≥ 10 | 
24 | CCNC(=O)c1nc(-c2cccc(C(=O)NCc3c(F)cccc3Cl)c2)cnc1N [Example 273, 3-amino-6-[3-({[(2-chloro-6-fluorophenyl)methyl]amino}carbonyl)phenyl]-N-ethylpyrazine-2-carboxamide] | 1 to 10 |  | 
25 | Nc1ncc(-c2cccc(C(=O)NCc3ccc(F)cc3F)c2)nc1C(=O)N[C@H]1CCCNC1 [Example 848, 3-amino-6-[3-({[(2,4-difluorophenyl)methyl]amino}carbonyl)phenyl]-N-[(3S)-piperidin-3-yl]pyrazine-2-carboxamide] |  |  | IC50 [1]: < 0.05 µM
26 | COc1ccc(N/N=C(\C)c2nc(-c3cccc(C(=O)NCc4ccccc4)c3)cnc2N)cc1 [Example 599, 3-(5-amino-6-{(1E)-N-[4-(methyloxy)phenyl]ethanehydrazonoyl}pyrazin-2-yl)-N-(phenylmethyl)benzamide] |  | 1 to 10 | 
27 | CNC(=O)c1nc(-c2cccc(CNC3c4ccccc4-c4ccccc43)c2)cnc1N [Example 447, 3-amino-6-{3-[(9H-fluoren-9-ylamino)methyl]phenyl}-N-methylpyrazine-2-carboxamide] |  | 1 to 10 | 
28 | Nc1ncc(-c2cccc(CNC(=O)C3COc4ccccc4O3)c2)nc1C(=O)N[C@H]1CCCNC1 (stereo partly drawn) [Example 939, 3-amino-6-(3-{[(2,3-dihydro-1,4-benzodioxin-2-ylcarbonyl)amino]methyl}phenyl)-N-[(3S)-piperidin-3-yl]pyrazine-2-carboxamide] |  |  | IC50 [1]: < 0.05 µM
29 | CNC(=O)c1nc(-c2ccc(OC)c(OC)c2)cnc1N [Example 80, 3-amino-6-[3,4-bis(methyloxy)phenyl]-N-methylpyrazine-2-carboxamide] | 1 to 10 |  | 
30 | CNC(=O)c1nc(-c2cccc(NC(=O)OC(C)(C)C)c2)cnc1N [Example 321, 1,1-dimethylethyl (3-{5-amino-6-[(methylamino)carbonyl]pyrazin-2-yl}phenyl)carbamate] | 1 to 10 |  | 
31 | Cc1ccc(N/N=C/c2nc(-c3cccc(C(=O)NCc4ccccc4)c3)cnc2N)cc1 [Example 680, 3-(5-amino-6-{(E)-[(4-methylphenyl)hydrazono]methyl}pyrazin-2-yl)-N-(phenylmethyl)benzamide] |  | ≥ 10 | 
32 | Nc1ncc(-c2cccc(CNC(=O)Nc3ccc(F)cc3F)c2)nc1C(=O)N[C@H]1CCCNC1 [Example 914, 3-amino-6-{3-[({[(2,4-difluorophenyl)amino]carbonyl}amino)methyl]phenyl}-N-[(3S)-piperidin-3-yl]pyrazine-2-carboxamide] |  |  | IC50 [1]: < 0.05 µM
